This is an account of results in paper PMC12808100, “The non-catalytic DNA polymerase ε subunit is an NPF motif recognition protein” (Nature Communications, 2025).

For one test, the target named is T1, EHD1 (Homo sapiens, UniProt Q9H4M9).
T1 sequence (Q9H4M9 1-534): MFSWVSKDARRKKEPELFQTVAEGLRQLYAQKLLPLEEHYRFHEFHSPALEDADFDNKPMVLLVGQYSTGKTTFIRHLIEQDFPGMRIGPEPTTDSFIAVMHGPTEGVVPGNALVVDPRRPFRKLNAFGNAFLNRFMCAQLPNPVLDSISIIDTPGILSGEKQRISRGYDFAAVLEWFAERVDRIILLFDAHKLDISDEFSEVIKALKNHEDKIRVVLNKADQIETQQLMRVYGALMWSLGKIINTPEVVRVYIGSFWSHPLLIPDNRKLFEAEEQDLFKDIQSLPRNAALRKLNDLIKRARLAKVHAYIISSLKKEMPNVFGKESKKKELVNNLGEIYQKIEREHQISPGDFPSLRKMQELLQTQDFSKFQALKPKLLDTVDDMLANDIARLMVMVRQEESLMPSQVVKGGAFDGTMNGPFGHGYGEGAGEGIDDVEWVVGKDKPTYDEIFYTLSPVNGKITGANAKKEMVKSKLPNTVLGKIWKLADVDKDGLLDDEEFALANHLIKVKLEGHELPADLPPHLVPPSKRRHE
The test is described as follows: nHU-MS peptide bait, prey EHD1. As to conditions: FigureS2 Volcano; prey EHD1.

In test [1] the test system is endogenous proteins of Jurkat extract. Briefly: Single-point nHU-MS with biotinylated NPF motif peptide baits, proteome-wide. Type of test: binding, human. As to conditions: FigureS2 Volcano; prey FBXO3. An excerpt:
To identify the partners of NPF motifs, we used the native holdup (nHU) assay that was recently developed by our team (Fig. 1B). The holdup approach has been extensively used to determine equilibrium dissociation constants of transient interactions mediated by PDZ and SH3 domains, 14-3-3, and human papilloma virus E6 proteins, and even nucleic acid-protein interactions[7],[30]–[35]. In the nHU experiments, a purified bait molecule, or a control compound, is immobilized on a resin at high concentration (typically 10 μM, or higher) and these resin stocks are subsequently mixed with dilute cell extracts. […] This liquid phase contains the unbound prey molecules at near binding equilibrium that can be quantified using selective and quantitative analytical approaches, such as mass spectrometry. Therefore, proteins that interact with the bait molecule will appear to be depleted in the solvent phase and by measuring its relative concentration compared to the control nHU experiment, the degree of binding (θ) can be determined that can be converted to apparent steady-state dissociation constants, according to:1 θ=1−Ifree/Itot=Cbait/Cbait+Kapp where Itot and Ifree are the measured total and bait-depleted equilibrium mass spectrometry total ion intensities of prey proteins, Cbait is the bait molecule concentration and Kapp is the apparent dissociation constant. […]

The next test concerns POLE. Briefly: Titration nHU, Western blot, endogenous POLE in Jurkat extract. Type of test: binding, human. As to conditions: titration nHU, Jurkat extract. An excerpt:
To identify the partners of NPF motifs, we used the native holdup (nHU) assay that was recently developed by our team (Fig. 1B). The holdup approach has been extensively used to determine equilibrium dissociation constants of transient interactions mediated by PDZ and SH3 domains, 14-3-3, and human papilloma virus E6 proteins, and even nucleic acid-protein interactions[7],[30]–[35]. In the nHU experiments, a purified bait molecule, or a control compound, is immobilized on a resin at high concentration (typically 10 μM, or higher) and these resin stocks are subsequently mixed with dilute cell extracts. After a relatively long incubation, i.e., 2 h at 4 °C, the liquid phase is separated by centrifugation. This liquid phase contains the unbound prey molecules at near binding equilibrium that can be quantified using selective and quantitative analytical approaches, such as mass spectrometry. Therefore, proteins that interact with the bait molecule will appear to be depleted in the solvent phase and by measuring its relative concentration compared to the control nHU experiment, the degree of binding (θ) can be determined that can be converted to apparent steady-state dissociation constants, according to:1 θ=1−Ifree/Itot=Cbait/Cbait+Kapp where Itot and Ifree are the measured total and bait-depleted equilibrium mass spectrometry total ion intensities of prey proteins, Cbait is the bait molecule concentration and Kapp is the apparent dissociation constant.
Jurkat E6.1 cells (ECACC #88042803, RRID: CVCL_0367) were grown in RPMI (Gibco) medium completed with 10% FBS (Gibco BRL) and 40 μg/ml gentamicin (Gibco/Life Technology). To prepare total cell extracts, Jurkat cells were seeded onto T-175 flasks and grew until 3 × 10^6 cells/ml confluency. Cells were collected by 1000 g x 5 min centrifugation, washed with PBS and then lysed in ice-cold lysis buffer (Hepes-KOH pH 7.5 50 mM, NaCl 150 mM, Triton X-100 1%, cOmplete EDTA-free protease inhibitor cocktail 5x, TCEP 5 mM, glycerol 10%).
Cell suspensions were sonicated 4×20 sec with 1 sec long pulse on ice, then incubated rotating at 4 °C for 30 min. The lysates were centrifuged at 12,000 rpm 4 °C for 20 min and supernatant was kept. Total protein concentration was measured by standard Bradford method (Bio-Rad Protein Assay Dye Reagent #5000006) using a BSA calibration curve (MP Biomedicals #160069, diluted in lysis buffer) on a Bio-Rad SmartSpec 3000 spectrophotometer instrument.
Titration holdup experiments were carried out as described above using 25 μl saturated resins prepared. Briefly, we mixed control, or bait-saturated resins at various proportions by keeping the total resin amount and resin-analyte ratio constant during the experiment (for 25 μl we used 100 μl cell extract as analyte). In titration experiments with protein baits, bait concentration was determined as described above for the saturated resin stocks. Experiments were carried out at 4 °C for 2 h and recovered supernatants were subjected to western blot or dot blot analysis.
For Western blot, samples were mixed with 4x Laemmli Sample Buffer in 3:1 ratio. Equal amounts of samples were loaded on 6-10% acrylamide-gels (generally 16 μg). Transfer was done into PVDF membranes using a Trans-Blot Turbo Transfer System and Trans-Blot Turbo RTA Transfer Kit (BioRad, #1704275). For Dot blot, nHU samples were directly loaded on Nitrocellulose membranes using 48 Sample vacuum manifold (Cleaver Scientific) following the manufacturer’s recommendations.
After 1 h of blocking in 5% milk, membranes were incubated overnight at 4 °C with primary antibodies in 5% milk-TBS-Tween.
On the technique in general: In western blotting, separated proteins are transferred to a membrane and probed.

As to TSETSK [SYNJ1], on EHD1, the “-log10P” value worked out at 14.1958 and the log2FC is on record as -0.4973. The log2FC in test [1] is given as -0.5002. For the same substance, in the test on POLE, the “weaker POLE binding than the DONSON motif” value was ~ 6 fold.
